From ChEMBL document CHEMBL5360557 (Eur J Med Chem, 2023) come the findings set out here.

Series [1] has as its target T1, Acetylcholinesterase (Homo sapiens, UniProt P22303). Put plainly: Inhibition of human AChE using acetylthiocholine iodide as substrate incubated for 1 min by spectrophotometry based Ellman's method.
Series [2] has as its target T2, Cholinesterase (Homo sapiens, UniProt P06276). The experiment in a line: Inhibition of human BuChE using butyrylthiocholine iodide as substrate incubated for 1 min by spectrophotometry based Ellman's method.
In series [3] the target is T1, Acetylcholinesterase. Put plainly: Inhibition of recombinant human AChE using acetylthiocholine iodide as substrate preincubated with enzyme for 5 mins followed by substrate addition and measured after 1 min by Ellman's method.
The species named for a further series is Homo sapiens. The experiment in a line: Selectivity ratio of IC50 for inhibition of human AChE using acetylthiocholine as substrate to IC50 for inhibition of human BuChE using butyrylthiocholine iodide as substrate.
The target of series [4] is T2, Cholinesterase. The experiment in a line: Inhibition of recombinant human BuChE using butyrylthiocholine iodide as substrate at 10 uM preincubated with enzyme for 5 mins followed by substrate addition and measured after 1 min by Ellman's method relative to control. Conditions: time 6.0 min.
The nature of a further series: in vitro. Conditions: PAMPA.
In series [5] the target is T2, Cholinesterase. Put plainly: Inhibition of recombinant human BuChE using butyrylthiocholine iodide as substrate preincubated with enzyme for 5 mins followed by substrate addition and measured after 1 min by Ellman's method.
Series [6] can be described thus: Cytotoxicity against human SH-SY5Y cells assessed as inhibition of cell growth incubated for 24 hrs by MTT assay. It is filed as toxicity, cell-based.
For series [7], the target named is T2, Cholinesterase. Put plainly: Competitive inhibition of human BuChE using butyrylthiocholine iodide as substrate assessed as inhibition constant preincubated with enzyme for 5 mins followed by substrate addition and measured after 1 min by Lineweaver-Burk plot based Ellman's method.
The nature of series [8]: Cytotoxicity against human HepG2 cells assessed as inhibition of cell growth incubated for 24 hrs by MTT assay. The series is classed as toxicity, cell-based.
In series [9] the target is T2, Cholinesterase. The experiment in a line: Competitive inhibition of human BuChE using butyrylthiocholine iodide as substrate assessed as increase in Km with constant apparent Vmax preincubated with enzyme for 5 mins followed by substrate addition and measured after 1 min by Lineweaver-Burk plot based Ellman's method. Conditions: time 6.0 min.

Calls of active or inactive are those of the source. No cut-off for these calls is given here.

T2 sequence (P06276 whole entry): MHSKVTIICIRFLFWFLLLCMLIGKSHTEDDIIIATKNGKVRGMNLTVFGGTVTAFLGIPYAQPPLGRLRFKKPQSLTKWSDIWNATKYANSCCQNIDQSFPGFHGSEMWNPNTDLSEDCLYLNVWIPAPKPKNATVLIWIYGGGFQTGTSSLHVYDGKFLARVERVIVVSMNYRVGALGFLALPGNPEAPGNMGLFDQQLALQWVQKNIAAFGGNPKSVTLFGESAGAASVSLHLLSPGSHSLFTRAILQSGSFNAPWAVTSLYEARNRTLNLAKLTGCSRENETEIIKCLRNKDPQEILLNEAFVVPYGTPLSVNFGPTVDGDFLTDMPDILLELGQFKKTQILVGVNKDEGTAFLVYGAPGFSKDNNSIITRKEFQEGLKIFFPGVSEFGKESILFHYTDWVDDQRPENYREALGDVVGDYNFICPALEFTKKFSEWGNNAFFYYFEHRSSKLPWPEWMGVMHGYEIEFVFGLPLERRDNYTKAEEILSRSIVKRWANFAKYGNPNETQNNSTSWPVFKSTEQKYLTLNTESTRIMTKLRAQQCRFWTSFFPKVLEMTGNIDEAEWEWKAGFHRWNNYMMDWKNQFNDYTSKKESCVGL
T1 sequence (P22303 whole entry): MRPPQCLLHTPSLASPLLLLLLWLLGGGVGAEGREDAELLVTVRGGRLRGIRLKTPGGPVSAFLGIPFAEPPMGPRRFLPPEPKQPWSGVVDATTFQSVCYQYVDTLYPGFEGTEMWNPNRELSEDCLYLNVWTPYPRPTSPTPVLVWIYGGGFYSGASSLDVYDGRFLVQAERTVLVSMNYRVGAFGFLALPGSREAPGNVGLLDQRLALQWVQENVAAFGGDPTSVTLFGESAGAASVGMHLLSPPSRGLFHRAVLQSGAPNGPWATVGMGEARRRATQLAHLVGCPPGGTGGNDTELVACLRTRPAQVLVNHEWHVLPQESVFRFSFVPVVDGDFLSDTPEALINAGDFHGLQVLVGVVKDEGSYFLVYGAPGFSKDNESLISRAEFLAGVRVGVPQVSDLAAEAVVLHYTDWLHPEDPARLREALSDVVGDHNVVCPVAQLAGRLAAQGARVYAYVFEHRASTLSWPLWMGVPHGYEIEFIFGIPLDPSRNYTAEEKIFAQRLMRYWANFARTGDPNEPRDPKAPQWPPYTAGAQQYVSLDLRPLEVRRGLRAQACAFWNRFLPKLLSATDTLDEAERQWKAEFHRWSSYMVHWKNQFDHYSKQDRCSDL
Description for in vitro: Permeability of the compound incubated for 3 to 6 hrs by PAMPA-BBB assay

For `COc1cc(CN(C)CCc2ccc(O)cc2)c(-c2cccc3c2N(C)CC3)cc1OC`, the figures for the half-inhibitory concentration (IC50) on Acetylcholinesterase [1] and on Cholinesterase [2] were above 100 µM and 0.91 µM, respectively.

`COc1cccc(CNCCc2ccc(O)cc2)c1OCc1ccccc1`: the IC50 at Acetylcholinesterase [3] is above 10 µM; on Cholinesterase [5], 0.2 µM. Besides, in the series filed under Homo sapiens, the Ratio IC50 is above 42. The inhibition at Cholinesterase [4] was 94%. Also, in “in vitro”, the Papp worked out at 19 ×10⁻⁶ cm/s.

`COc1cccc(CN(CCCc2ccccc2F)C2CCC2)c1OCc1ccccc1`: the IC50 is above 10 µM at Acetylcholinesterase [3] and 0.004 µM on Cholinesterase [5]. Besides, the results for the IC50 at 24 h in [6] and in [8] were 87 µM and 76 µM, respectively. The inhibition on Cholinesterase [4] is 99%. The Ki on Cholinesterase [7] turned out to be 0.00404 µM. Also, in the series “in vitro”, the Papp worked out at 60 ×10⁻⁶ cm/s. Moreover, at Cholinesterase [9], the inhibition result was “Active”.

With `CN(CCc1ccc(O)cc1)Cc1cc2c(cc1-c1cccc3c1N(C)CC3)OCO2`, at Acetylcholinesterase [1], the IC50 is above 100 µM.

As to `CCCN(CCCc1ccccc1F)Cc1cccc(OC)c1OCc1ccccc1`, the IC50 on Acetylcholinesterase [3] is above 10 µM; at Cholinesterase [5], 0.02 µM. Also, the results for the IC50 at 24 h in series [6] and in series [8] were 49 µM and 33 µM, respectively. On Cholinesterase [4], the inhibition is 97%. For the same compound, the Papp in “in vitro” worked out at 85 ×10⁻⁶ cm/s.
